We go through three molecules from patent US12201602B2, “Medicament comprising combination of sepetaprost and Rho-associated coiled-coil containing protein kinase inhibitor” (SANTEN PHARMACEUTICAL CO., LTD., priority 2017, dated 2025).

The structures appear in SMILES notation.

For assay [1], the system named is normal pressure monkeys. The assay is described as follows: Intraocular pressure lowering effect of sepetaprost and netarsudil, alone and concomitantly (Example 2). In kind it is in vivo, cynomolgus monkey. The note with it: eye drop 20 μL/eye, sepetaprost 0.0003% (w/v), netarsudil 0.01% (w/v), average of 8 monkeys. The protocol: In order to examine usefulness of the combination of sepetaprost and a Rho-associated coiled-coil containing protein kinase inhibitor(s), the effect of lowering an intraocular pressure when sepetaprost and netarsudil which is a Rho-associated coiled-coil containing protein kinase inhibitor were administered concomitantly to experimental animals (normal pressure monkeys) was investigated. Sepetaprost was dissolved in purified water containing a solubilizing agent, and then, a sepetaprost solution with a desired concentration was prepared by using a commonly used method. […] An effect of lowering an intraocular pressure when sepetaprost and netarsudil were administered concomitantly was investigated. As a comparative subject, an effect of lowering an intraocular pressure when sepetaprost or netarsudil was administered alone was also investigated. As a control, the base of the sepetaprost solution and the base of the netarsudil solution were administered. […] Also, the intraocular pressure was measured each three times, and the average value was calculated. With respect to the changed value of the intraocular pressure (mmHg), a difference from the value of the intraocular pressure before administration at each measurement time point was calculated. […] The test was carried out in the same manner as the above-mentioned concomitant administration test except for changing the netarsudil solution to the base of the netarsudil solution. The test was carried out in the same manner as the above-mentioned concomitant administration test except for changing the sepetaprost solution to the base of the sepetaprost solution. The test was carried out in the same manner as the above-mentioned concomitant administration test except for changing the sepetaprost solution to the base of the sepetaprost solution and changing the netarsudil solution to the base of the netarsudil solution. The changes in the lowering of the intraocular pressure with the lapse of time for each administered group are shown in FIG. 2 and Table 2. The change in the intraocular pressure values are shown by an average value ±SEM of the difference from the value (0 hour) before administration of eight monkeys in each group with regard to each measurement time point of each individual. Comparison of the control group with the sepetaprost group, the netarsudil group, or the sepetaprost/netarsudil concomitant use group, and comparison of the sepetaprost/netarsudil concomitant use group with the sepetaprost group or the netarsudil group was carried out by, after carrying out the Bartlett test, in the case where dispersion is uniform, using the Dunnett test, or in the case of ununiform, using the Steel test. The significance level with respect to the control group was shown as *: p<0.05 and **: p<0.01 in the Steel test, and *: […] in the Dunnett test.

Assay [2] deals with normal pressure monkeys. Nature of the assay: Intraocular pressure lowering effect of sepetaprost and ripasudil, alone and concomitantly (Example 1). Format: in vivo, cynomolgus monkey. The note with it: eye drop 20 μL/eye, sepetaprost 0.0003% (w/v), ripasudil 0.4% (w/v), average of 8 monkeys. The method, then: In order to examine usefulness of the combination of sepetaprost and a Rho-associated coiled-coil containing protein kinase inhibitor(s), the effect of lowering an intraocular pressure when sepetaprost and ripasudil which is a Rho-associated coiled-coil containing protein kinase inhibitor were administered concomitantly to experimental animals (normal pressure monkeys) was investigated. Sepetaprost was dissolved in purified water containing a solubilizing agent, and then, a sepetaprost solution with a desired concentration was prepared by using a commonly used method. Commercially available ripasudil eye drop (Kowa Company, Ltd., […] (Registered Trademark) eye drops 0.4%) was used as it was. An effect of lowering an intraocular pressure when sepetaprost and ripasudil were administered concomitantly was investigated. As a comparative subject, an effect of lowering an intraocular pressure when sepetaprost or ripasudil was administered alone was also investigated. As a control, the base of the sepetaprost solution and physiological saline solution were administered. • Sepetaprost solution: 0.0003% (w/v) sepetaprost solution (volume of eye dropped: 20 μL/eye) • Ripasudil solution: 0.4% (w/v) ripasudil solution (trade name: […] Also, the intraocular pressure was measured each three times, and the average value was calculated. With respect to the changed value of the intraocular pressure (mmHg), a difference from the value of the intraocular pressure before administration at each measurement time point was calculated. […] The test was carried out in the same manner as the above-mentioned concomitant administration test except for changing the ripasudil solution to the physiological saline solution. The test was carried out in the same manner as the above-mentioned concomitant administration test except for changing the sepetaprost solution to the base of the sepetaprost solution. The test was carried out in the same manner as the above-mentioned concomitant administration test except for changing the sepetaprost solution to the base of the sepetaprost solution and changing the ripasudil solution to the physiological saline solution. The changes in the lowering of the intraocular pressure with the lapse of time for each administered group are shown in FIG. 1 and Table 1. The changes in the intraocular pressure values are shown by an average value ±SEM of the difference from the value (0 hour) before administration of eight monkeys in each group with regard to each measurement time point of each individual. Comparison of the control group with the sepetaprost group, the ripasudil group, or the sepetaprost/ripasudil concomitant use group, and comparison of the sepetaprost/ripasudil concomitant use group with the sepetaprost group or the ripasudil group was carried out by, after carrying out the Bartlett test, in the case where dispersion is uniform, using the Dunnett test, or in the case of ununiform, using the Steel test. The significance level with respect to the control group was shown as ##: p<0.01 in the Dunnett test, and *: p<0.05 and **: p<0.01 in the Steel test.

As for `CC(C)OC(=O)CCC[C@H]1CC[C@@H]2[C@@H](/C=C/[C@@H](O)COc3cc(F)ccc3F)[C@H](O)C[C@@H]2OC1` [Sepetaprost, 2-propanyl 4-{(3S, 5aR, 6R, 7R, 8aS)-6-[(1E, 3R)-4-(2,5-difluorophenoxy)-3-hydroxy-1-buten-1-yl]-7-hydroxyoctahydro-2H-cyclopenta[b]oxepin-3-yl}butanoate], the “changed value of the intraocular pressure (difference from value before administration)” value with normal pressure monkeys [1] (2 hours after dropping) is on record as −0.2 mmHg; in the assay with normal pressure monkeys [1] (4 hours after dropping), −1.6 mmHg; in the assay with normal pressure monkeys [1] (6 hours after dropping) it was −2.2 mmHg; in the assay with normal pressure monkeys [1] (8 hours after dropping) it was −2.0 mmHg; with normal pressure monkeys [1] (24 hours after dropping), −1.1 mmHg; in the assay on normal pressure monkeys [2] (2 hours after dropping), −0.1 mmHg. Besides, the “changed value of the intraocular pressure (difference from value before administration)” value is −0.9 mmHg in the assay with normal pressure monkeys [2] (4 hours after dropping), −1.8 mmHg in the assay with normal pressure monkeys [2] (6 hours after dropping), −1.9 mmHg with normal pressure monkeys [2] (8 hours after dropping) and −0.6 mmHg with normal pressure monkeys [2] (24 hours after dropping).
Take `Cc1ccc(C(=O)OCc2ccc([C@@H](CN)C(=O)Nc3ccc4cnccc4c3)cc2)c(C)c1` [Netarsudil, [4-[(1S)-1-(aminomethyl)-2-(isoquinolin-6-ylamino)-2-oxoethyl]phenyl]methyl 2,4-dimethylbenzoate]: the “changed value of the intraocular pressure (difference from value before administration)” value in the assay on normal pressure monkeys [1] (2 hours after dropping) is recorded as −0.4 mmHg; with normal pressure monkeys [1] (4 hours after dropping) it was −2.2 mmHg; in the assay on normal pressure monkeys [1] (6 hours after dropping), −2.1 mmHg; with normal pressure monkeys [1] (8 hours after dropping) it was −2.3 mmHg; with normal pressure monkeys [1] (24 hours after dropping), −0.6 mmHg.
With `C[C@H]1CNCCCN1S(=O)(=O)c1cccc2cncc(F)c12` [Ripasudil, (S)-(−)-1-(4-fluoro-5-isoquinolinesulfonyl)-2-methyl-1,4-homopiperazine], the “changed value of the intraocular pressure (difference from value before administration)” value is −2.4 mmHg with normal pressure monkeys [2] (2 hours after dropping); −1.8 mmHg in the assay with normal pressure monkeys [2] (4 hours after dropping); −1.6 mmHg in the assay with normal pressure monkeys [2] (6 hours after dropping); −1.5 mmHg in the assay on normal pressure monkeys [2] (8 hours after dropping); −0.4 mmHg in the assay on normal pressure monkeys [2] (24 hours after dropping).
